# Marks after values point to notes of the source that are not given here.
# Columns and labels:
# Type in all cases: in vivo, domestic healthy male white pigs
# [1] = system: model of cardiac arrest and resuscitation; assay: Cerebral function (NDS) and brain injury biomarkers after resuscitation; conditions: 28.5 mg/kg i.v., P<0.05, FIG. 3
# Protocol: (§1) • 1. Setting model conditions: 8 min of cardiac arrest and 8 min of cardiopulmonary resuscitation. • 2. Cardiac arrest method: inducing ventricular fibrillation by right ventricular electrode discharge, and observing for 8 min without intervention. • 3. […]
# (§2) • 1. Changes in physiological indexes such as heart rate, blood pressure, ETCO2, CBF, rSO2, and body temperature were dynamically monitored throughout the experiment, and the survival outcomes of the animals at 4 h and 24 h were recorded. • 2. During cardiopulmonary resuscitation, the changes in CPP, ETCO2, CBF, and rSO2 were continuously monitored dynamically, and the duration of cardiopulmonary resuscitation, number of defibrillation, dosage of adrenaline, and rate of return of spontaneous circulation of various groups of animals were recorded. • 3. Before modeling and at 1 h, 2 h, and 4 h after resuscitation, the changes in cardiac function such as SV and GEF were periodically detected by using a PiCCO monitor. • 4. […] The blood plasma was frozen and stored in a −80° C. deep hypothermia freezer, and serum levels of myocardial injury biomarker cardiac troponin I (cTnI), brain injury biomarker neuron specific enolase (NSE) and S100B protein (S100B), renal and intestinal injury biomarker creatinine (Cr) and intestinal fatty acid-binding protein (iFABP) were detected by using an enzyme-linked immunosorbent assay at selected time. • 5. […]
# [2] = system: model of cardiac arrest and resuscitation; assay: Outcomes of cardiopulmonary resuscitation and cardiac/cerebral perfusion in pig model of cardiac arrest and resuscitation
# Protocol: (§3) • 1. All animals started fasting without water deprivation 12 h before experiment. • 2. The experimental animals were firstly intramuscularly injected with midazolam by 0.4-0.5 mg/kg for induced anesthesia, connected to an electrocardiogram monitor, then injected with propofol by 2 mg/kg through ear vein for general anesthesia, and afterwards maintained in an anesthetic state through infusing 4 mg/kg/h via the vein. • 3. Endotracheal intubation, monitoring of partial pressure of end-tidal carbon dioxide (ETCO2), and mechanical ventilation were rapidly carried out, wherein ventilation parameters were an intermittent positive pressure ventilation (IPPV) mode, with oxygen concentration of 21%, tidal volume of 10 ml/kg, and positive end-expiratory pressure of 0 mmHg, and ETCO2 was maintained in a normal physiological range of 35-40 mmHg by adjusting respiratory frequency. • 4. Right femoral artery and vein were exposed by operation, and Swan-Ganz catheters were respectively disposed into thoracic aorta and right atrium, wherein the former was used to monitor aortic blood pressure and collect an arterial blood sample, and the catheter main chamber of the latter was used to monitor right atrial pressure and body temperature and collect a venous blood sample, a catheter side chamber was used to infuse a therapeutic medicine, and calculate the level of coronary perfusion pressure (CPP) according to the difference between decompression diastolic aortic and time-coincident right atrial pressures. • 5. Right external jugular vein was exposed by operation, and an inducing electrode for ventricular fibrillation was disposed into right ventricle to induce ventricular fibrillation later. • 6. Right internal jugular vein and left femoral artery were exposed by operation, a central venous catheter and a thermodilution arterial catheter were respectively disposed therein, and the two were connected to a pulse indication continuous cardiac output (PiCCO) monitor, for monitoring the changes of cardiac function including stroke volume (SV) and global ejection fraction (GEF). • 7. Right carotid artery was exposed by operation, superficial fascia was stripped off, a carotid blood flow sensor was arranged, and then a blood flow velocity ultrasonic recorder was connected to monitor the change of carotid blood flow (CBF) in real time. • 8. The animals' forehead hair was shaved off, to expose forehead skin. The forehead skin was cleaned with alcohol, and attached with a cerebral oxygen monitoring probe, and then a cerebral oxygen monitor was attached to monitor the change of regional cerebral oxygen saturation (rSO2) in real time. • 9. The body temperature of the animals was maintained at a normal temperature of about 38° C. all the time by using a temperature control blanket.
# • 1. Setting model conditions: 8 min of cardiac arrest and 8 min of cardiopulmonary resuscitation. • 2. Cardiac arrest method: inducing ventricular fibrillation by right ventricular electrode discharge, and observing for 8 min without intervention. • 3. Cardiopulmonary resuscitation method: • 1) continuous manual external chest compression; • 2) mechanical ventilation was carried out by using a respirator (parameters were IPPV (intermittent positive pressure ventilation) mode, with oxygen concentration of 100%, tidal volume of 7 ml/kg, respiratory frequency of 10 times/min, and positive end-expiratory pressure of 0 mmHg); • 3) adrenalin: when cardiopulmonary resuscitation was performed for 2 min, adrenalin was given by 20 μg/kg, thereafter, the same was repeated every 4 min; • 4) defibrillation: when cardiopulmonary resuscitation was performed for 8 min, 150 J electrical defibrillation was performed once; and • 5) if spontaneous circulation was not restored, cardiopulmonary resuscitation was immediately restarted for 2 min, followed by one time of defibrillation. This cycle was repeated for 5 times or less until the resuscitation was successful or declared to be failed. • 4. […]
# [3] = system: model of cardiac arrest and resuscitation; assay: Cardiac function (PiCCO) and myocardial injury biomarker after resuscitation; conditions: 28.5 mg/kg i.v., P<0.05, FIG. 2
# Protocol: as §3, with “Right carotid artery was exposed by operation, superficial fascia was stripped off, a carotid blood flow sensor was arranged, and then a blood flow velocity ultrasonic recorder was connected to monitor the change of carotid blood flow (CBF) in real time. • 8. The animals' forehead hair was shaved off, to expose forehead skin. The forehead skin was cleaned with alcohol, and attached with a cerebral oxygen monitoring probe, and then a cerebral oxygen monitor was attached to monitor the change of regional cerebral oxygen saturation (rSO2) in real time. • 9. The body temperature of the animals was maintained at a normal temperature of about 38° C. all the time by using a temperature control blanket.” left out
# [4] = system: model of cardiac arrest and resuscitation; assay: Renal and intestinal injury biomarkers after resuscitation; conditions: 28.5 mg/kg i.v., P<0.05, FIG. 4
# Protocol: as §1, §2
# [5] = system: model of cardiac arrest and resuscitation; assay: Cell apoptosis in heart, brain, kidney and intestine by TUNEL after resuscitation; conditions: at 24 h after resuscitation, 28.5 mg/kg i.v., P<0.05, FIG. 5
# Protocol: as §1, §2
# [6] = during cardiopulmonary resuscitation, almost all time points, 28.5 mg/kg i.v., P<0.05, FIG. 1
# [7] = in words, 28.5 mg/kg i.v., P<0.05
# [8] = pigs, sodium octanoate 28.5 mg/kg intravenously at start of CPR, n=8, P<0.05 vs CPR group
# [9] = pigs, sodium octanoate 28.5 mg/kg intravenously at start of CPR, P<0.05 vs CPR group
# [10] = starting 1 h after resuscitation
smiles,measurement,setting,value
"CCCCCCCC(=O)[O-].[Na+] [SO, sodium octanoate]",Serum level of S100B compared with the CPR group,"[1]; at 1 h, 2 h, and 24 h after resuscitation",remarkably reduced
same,Serum level of NSE (neuron specific enolase) compared with the CPR group,[1]; at 4 h and 24 h after resuscitation,remarkably reduced
same,NDS (neurological deficit score) compared with the CPR group,[1]; at 24 h after resuscitation,remarkably lower
same,CBF (carotid blood flow) compared with the CPR group,[2]; [6],obviously higher
same,CPP (coronary perfusion pressure) compared with the CPR group,[2]; [6],obviously higher
same,ETCO2 (partial pressure of end-tidal carbon dioxide) compared with the CPR group,[2]; [6],obviously higher
same,rSO2 (regional cerebral oxygen saturation) compared with the CPR group,[2]; [6],obviously higher
same,Dosage of adrenaline compared with the CPR group,[2]; [7],decreased
same,Duration of cardiopulmonary resuscitation compared with the CPR group,[2]; [7],shortened
same,Number of defibrillation compared with the CPR group,[2]; [7],reduced
same,Rate of return of spontaneous circulation compared with the CPR group,[2]; [7],increased
same,Survival rates at 4 h and 24 h post-resuscitation compared with the CPR group,[2]; [7],increased
same,Duration of cardiopulmonary resuscitation,"[2]; pigs, 8 min cardiac arrest, sodium octanoate 28.5 mg/kg intravenously at start of CPR, n=8, P<0.05 vs CPR group",8.00 ± 0.00 min
same,Dosage of adrenaline,[2]; [8],1.59 ± 0.08 mg
same,Number of defibrillation,[2]; [8],1.00 ± 0.00 n
same,4-h survival,[2]; [9],8/8^#
same,24-h survival,[2]; [9],8/8^#
same,Return of spontaneous circulation,[2]; [9],8/8^#
same,GEF (global ejection fraction) compared with the CPR group,[3]; [10],obviously higher
same,SV (stroke volume) compared with the CPR group,[3]; [10],obviously higher
same,Serum level of cTnI (cardiac troponin I) compared with the CPR group,[3]; starting 4 h after resuscitation,markedly lower
same,Serum levels of Cr (creatinine) compared with the CPR group,[4]; at 2 h and 24 h after resuscitation,remarkably reduced
same,Serum level of iFABP (intestinal fatty acid-binding protein) compared with the CPR group,[4]; at 24 h after resuscitation,remarkably reduced
same,"Cell apoptosis of various organs (heart, brain, kidney, intestine; TUNEL) compared with the CPR group",[5],remarkably reduced
